Test results published in patent US20260317324A1, “BIFUNCTIONAL COMPOUNDS FOR DEGRADING BRAF VIA UBIQUITIN PROTEOSOME PATHWAY” (Nurix Therapeutics, Inc., priority 2023, published 2026).

What was measured:
Assay type in all cases: cell-based
BRAF V600E = target: T1, BRAF V600E (Homo sapiens, UniProt P15056, V600E); test: BRAF HiBiT degradation assay, C-terminal HiBiT-tagged BRAF V600E A375 cells (clone 1F10), Nano-Glo HiBiT Lytic assay; conditions: for Dmax: A-375
T1 construct: endogenous C-terminal HiBiT fusion tag on BRAF V600E allele; endogenous in cells; host or cells: A375 clone 1F10 (CRISPR-Cas9 knock-in of the HiBiT tag; parental A375 from ATCC)
T1 sequence (P15056 whole entry V600E, the tested form may be a part): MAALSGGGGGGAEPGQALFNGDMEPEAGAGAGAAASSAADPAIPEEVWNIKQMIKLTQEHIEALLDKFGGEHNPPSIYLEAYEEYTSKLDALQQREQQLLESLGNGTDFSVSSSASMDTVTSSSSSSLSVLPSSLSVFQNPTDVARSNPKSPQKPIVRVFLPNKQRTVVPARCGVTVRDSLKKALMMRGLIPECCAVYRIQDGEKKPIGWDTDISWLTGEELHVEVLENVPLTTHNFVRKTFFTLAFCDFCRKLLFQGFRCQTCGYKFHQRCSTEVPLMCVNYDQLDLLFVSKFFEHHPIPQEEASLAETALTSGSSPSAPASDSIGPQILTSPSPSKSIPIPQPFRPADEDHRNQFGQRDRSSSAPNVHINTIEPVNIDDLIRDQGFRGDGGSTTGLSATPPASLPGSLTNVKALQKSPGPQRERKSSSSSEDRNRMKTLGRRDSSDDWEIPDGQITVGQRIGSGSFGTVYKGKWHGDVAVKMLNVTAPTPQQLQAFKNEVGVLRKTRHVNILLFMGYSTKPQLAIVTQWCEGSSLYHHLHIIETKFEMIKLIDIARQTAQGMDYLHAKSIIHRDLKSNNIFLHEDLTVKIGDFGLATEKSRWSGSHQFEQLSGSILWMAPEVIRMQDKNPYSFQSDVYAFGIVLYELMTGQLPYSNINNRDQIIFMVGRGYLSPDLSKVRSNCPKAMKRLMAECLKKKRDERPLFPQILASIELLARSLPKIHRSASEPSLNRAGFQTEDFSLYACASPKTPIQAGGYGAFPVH
Summary of the method: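 A375 cells with CRISPR knock-in C-terminal HiBiT on endogenous BRAF V600E (clone 1F10) were seeded and cultured 24 h at 37 °C, then dosed with an 11-point half-log series (1 μM to 0.01 nM, duplicate, 0.2% DMSO). Lytic HiBiT luminescence gave % protein remaining; DC50 was the fitted concentration at 50%.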

BRAF G466V = target: T2, BRAF G466V (Homo sapiens, UniProt P15056, G466V); test: BRAF HiBiT degradation assay, C-terminal HiBiT-tagged BRAF G466V overexpressed in HCT-116 BRAF−/− cells (clone 8), Nano-Glo HiBiT Lytic assay
T2 construct: Horizon Discovery (HCT-116 BRAF−/− cells); host or cells: HCT-116 BRAF−/− cells, clone 8, lentiviral transduction
T2 sequence (P15056 whole entry G466V): as the sequence (P15056 whole entry V600E, the tested form may be a part) above, with G466V, E600V counted along it
Summary of the method: (§1)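 HCT-116 BRAF−/− cells stably expressing the tagged mutant were seeded at 3,000 cells/well and grown 24 h at 37 °C before an 11-point half-log series from 1 μM to 0.01 nM, run in duplicate at 0.2% DMSO. Lytic HiBiT luminescence gave % protein remaining versus DMSO controls; DC50 was the fitted concentration at 50%.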

BRAF G469A = target: T3, BRAF G469A (Homo sapiens, UniProt P15056, G469A); test: BRAF HiBiT degradation assay, C-terminal HiBiT-tagged BRAF G469A overexpressed in HCT-116 BRAF−/− cells (clone 34), Nano-Glo HiBiT Lytic assay
T3 construct: Horizon Discovery (HCT-116 BRAF−/− cells); host or cells: HCT-116 BRAF−/− cells, clone 34, lentiviral transduction
T3 sequence (P15056 whole entry G469A): as the sequence (P15056 whole entry V600E, the tested form may be a part) above, with G469A, E600V counted along it
Summary of the method: as §1

BRAF D594G = target: T4, BRAF D594G (Homo sapiens, UniProt P15056, D594G); test: BRAF HiBiT degradation assay, C-terminal HiBiT-tagged BRAF D594G overexpressed in HCT-116 BRAF−/− cells (clone 63), Nano-Glo HiBiT Lytic assay
T4 construct: Horizon Discovery (HCT-116 BRAF−/− cells); host or cells: HCT-116 BRAF−/− cells, clone 63, lentiviral transduction
T4 sequence (P15056 whole entry D594G): as the sequence (P15056 whole entry V600E, the tested form may be a part) above, with D594G, E600V counted along it
Summary of the method: as §1

[1] = A375 (BRAF V600E), DC50 at 50%: fitted conc. at Y=50
[2] = A375 (BRAF V600E), percentage protein degraded at maximal compound effect relative to DMSO
[3] = BRAF G466V, DC50 at 50%: fitted conc. at Y=50
[4] = HCT-116, BRAF G466V, percentage protein degraded at maximal compound effect relative to DMSO
[5] = Class 2, BRAF G469A, DC50 at 50%: fitted conc. at Y=50
[6] = HCT-116, Class 2, BRAF G469A, percentage protein degraded at maximal compound effect relative to DMSO
[7] = BRAF D594G, DC50 at 50%: fitted conc. at Y=50
[8] = HCT-116, BRAF D594G, percentage protein degraded at maximal compound effect relative to DMSO
[9] = A375 (BRAF V600E, Class 1), DC50 at 50% degradation
[10] = A375 (BRAF V600E, Class 1), observed Dmax, % protein degraded relative to DMSO control
[11] = BRAF G466V (Class 3), HCT-116 BRAF−/− cells, DC50 at 50% degradation
[12] = BRAF G466V (Class 3), HCT-116 BRAF−/− cells, observed Dmax relative to DMSO control
[13] = BRAF G469A (Class 2), HCT-116 BRAF−/− cells, DC50 at 50% degradation
[14] = BRAF G469A (Class 2), HCT-116 BRAF−/− cells, observed Dmax relative to DMSO control
[15] = BRAF D594G (Class 3), HCT-116 BRAF−/− cells, DC50 at 50% degradation
[16] = BRAF D594G (Class 3), HCT-116 BRAF−/− cells, observed Dmax relative to DMSO control

Row | SMILES | DC50 (BRAF V600E; [1]) | Dmax (BRAF V600E; [2]) | DC50 (BRAF G466V; [3]) | Dmax (BRAF G466V; [4]) | DC50 (BRAF G469A; [5]) | Dmax (BRAF G469A; [6]) | DC50 (BRAF D594G; [7]) | Dmax (BRAF D594G; [8]) | DC50 (BRAF V600E; [9]) | Dmax (BRAF V600E; [10]) | DC50 (BRAF G466V; [11]) | Dmax (BRAF G466V; [12]) | DC50 (BRAF G469A; [13]) | Dmax (BRAF G469A; [14]) | DC50 (BRAF D594G; [15]) | Dmax (BRAF D594G; [16])
1 | CCCS(=O)(=O)Nc1cccc(-c2nc(C(C)(C)C)sc2-c2ccnc(Nc3cnn(CC4CCN(C[C@H]5CC[C@H](Oc6ccc(C7CCC(=O)NC7=O)cc6)CC5)CC4)c3)n2)c1F (mixture of isomers) [Compound 84, N-(3-{2-tert-butyl-5-[2-({1-[(1-{[(1r,4r)-4-{4-[(3RS)-2,6-dioxopiperidin-3-yl]phenoxy}cyclohexyl]methyl}piperidin-4-yl)methyl]-1H-pyrazol-4-yl}amino)pyrimidin-4-yl]-1,3-thiazol-4-yl}-2-fluorophenyl)propane-1-sulfonamide] | 50 to 500 nM | > 70% | > 500 nM | < 30% | > 500 nM | < 30% | > 500 nM | 30 to 70% | – | – | – | – | – | – | – | –
2 | CCCS(=O)(=O)Nc1cccc(-c2nc(C3CCN(C(=O)C4CCN(C(=O)C5CCN(c6ccc(C7CCC(=O)NC7=O)cn6)CC5)CC4)CC3)sc2-c2ccnc(N)n2)c1F (racemic) [Compound 254, Rac-N-{3-[5-(2-aminopyrimidin-4-yl)-2-{1-[1-(1-{5-[(3R)-2,6-dioxopiperidin-3-yl]pyridin-2-yl}piperidine-4-carbonyl)piperidine-4-carbonyl]piperidin-4-yl}-1,3-thiazol-4-yl]-2-fluorophenyl}propane-1-sulfonamide] | – | – | – | – | – | – | – | – | < 10 nM | > 70% | < 10 nM | > 70% | 10 to 50 nM | 30 to 70% | < 10 nM | 30 to 70%
3 | CCCS(=O)(=O)Nc1cccc(-c2nc(C3CCN(C4CN(C(=O)CC5CCN(c6ccc(C7CCC(=O)NC7=O)cc6)CC5)C4)CC3)sc2-c2ccnc(N)n2)c1F (racemic) [Compound 215, Rac-N-{3-[5-(2-aminopyrimidin-4-yl)-2-(1-{1-[2-(1-{4-[(3R)-2,6-dioxopiperidin-3-yl]phenyl}piperidin-4-yl)acetyl]azetidin-3-yl}piperidin-4-yl)-1,3-thiazol-4-yl]-2-fluorophenyl}propane-1-sulfonamide] | 10 to 50 nM | > 70% | > 500 nM | < 30% | > 500 nM | < 30% | > 500 nM | < 30% | – | – | – | – | – | – | – | –
4 | CCCS(=O)(=O)Nc1cccc(-c2nc(C(C)(C)C)sc2-c2ccnc(Nc3ccc(N4CCN(C(=O)C5CCN(c6ccc(C7CCC(=O)NC7=O)cc6)CC5)CC4)cc3)n2)c1F (racemic) [Compound 38, Rac-N-(3-{2-tert-butyl-5-[2-({4-[4-(1-{4-[(3R)-2,6-dioxopiperidin-3-yl]phenyl}piperidine-4-carbonyl)piperazin-1-yl]phenyl}amino)pyrimidin-4-yl]-1,3-thiazol-4-yl}-2-fluorophenyl)propane-1-sulfonamide] | < 10 nM | > 70% | > 500 nM | < 30% | 10 to 50 nM | < 30% | > 500 nM | 30 to 70% | – | – | – | – | – | – | – | –
5 | CCN(C)S(=O)(=O)Nc1cccc(-c2nc(C(C)(C)C)sc2-c2ccnc(Nc3ccc(N4CCN(CC5CCN(c6ccc([C@H]7CCC(=O)NC7=O)cn6)CC5)CC4)cn3)n2)c1F [Compound 29, (3R)-3-{6-[4-({4-[6-({4-[2-tert-butyl-4-(3-{[ethyl(methyl)sulfamoyl]amino}-2-fluorophenyl)-1,3-thiazol-5-yl]pyrimidin-2-yl}amino)pyridin-3-yl]piperazin-1-yl}methyl)piperidin-1-yl]pyridin-3-yl}piperidine-2,6-dione] | 10 to 50 nM | > 70% | < 10 nM | > 70% | 10 to 50 nM | 30 to 70% | < 10 nM | 30 to 70% | – | – | – | – | – | – | – | –
6 | CCCS(=O)(=O)Nc1cccc(-c2nc(-c3ccc(C4CCN(CC5CCN(c6ccc(C7CCC(=O)NC7=O)cn6)CC5)CC4)cc3)sc2-c2ccnc(N)n2)c1F (racemic) [Compound 208, Rac-N-{3-[5-(2-aminopyrimidin-4-yl)-2-(4-{1-[(1-{5-[(3R)-2,6-dioxopiperidin-3-yl]pyridin-2-yl}piperidin-4-yl)methyl]piperidin-4-yl}phenyl)-1,3-thiazol-4-yl]-2-fluorophenyl}propane-1-sulfonamide] | 10 to 50 nM | > 70% | > 500 nM | 30 to 70% | > 500 nM | 30 to 70% | > 500 nM | 30 to 70% | – | – | – | – | – | – | – | –

Further lines, results first:

Row | DC50 (BRAF V600E; [1]) | Dmax (BRAF V600E; [2]) | DC50 (BRAF G466V; [3]) | Dmax (BRAF G466V; [4]) | DC50 (BRAF G469A; [5]) | Dmax (BRAF G469A; [6]) | DC50 (BRAF D594G; [7]) | Dmax (BRAF D594G; [8]) | DC50 (BRAF V600E; [9]) | Dmax (BRAF V600E; [10]) | DC50 (BRAF G466V; [11]) | Dmax (BRAF G466V; [12]) | DC50 (BRAF G469A; [13]) | Dmax (BRAF G469A; [14]) | DC50 (BRAF D594G; [15]) | Dmax (BRAF D594G; [16]) | SMILES
7 | < 10 nM | > 70% | < 10 nM | 30 to 70% | 50 to 500 nM | 30 to 70% | < 10 nM | 30 to 70% | – | – | – | – | – | – | – | – | CCCS(=O)(=O)Nc1cccc(-c2nc(C3CCN(C(=O)C4CCN(C(=O)C5CCN(c6ccc(C7CCC(=O)NC7=O)cn6)CC5)CC4)CC3)sc2-c2ccncc2)c1F (racemic) [Compound 210, Rac-N-[3-(2-{1-[1-(1-{5-[(3R)-2,6-dioxopiperidin-3-yl]pyridin-2-yl}piperidine-4-carbonyl)piperidine-4-carbonyl]piperidin-4-yl}-5-(pyridin-4-yl)-1,3-thiazol-4-yl)-2-fluorophenyl]propane-1-sulfonamide]
8 | – | – | – | – | – | – | – | – | 10 to 50 nM | > 70% | < 10 nM | > 70% | 50 to 500 nM | 30 to 70% | < 10 nM | 30 to 70% | O=C1CCN(c2ccc(N3CCC(CN4CCN(c5ccc(-n6cc(-c7cc(F)cc(NS(=O)(=O)N8CCCC8)c7F)c(-c7ccncc7)n6)cc5)CC4)CC3)cc2)C(=O)N1 [Compound 300, N-[3-(1-{4-[4-({1-[4-(2,4-dioxo-1,3-diazinan-1-yl)phenyl]piperidin-4-yl}methyl)piperazin-1-yl]phenyl}-3-(pyridin-4-yl)-1H-pyrazol-4-yl)-2,5-difluorophenyl]pyrrolidine-1-sulfonamide]
9 | – | – | – | – | – | – | – | – | < 10 nM | > 70% | < 10 nM | > 70% | 10 to 50 nM | 30 to 70% | < 10 nM | 30 to 70% | CCCS(=O)(=O)Nc1cc(Cl)cc(-c2cn(-c3ccc(N4CCN(CC5CCN(c6ccc(C7CCC(=O)NC7=O)cn6)CC5)[C@@H](C)C4)cc3)nc2-c2ccncc2)c1F (mixture of isomers) [Compound 279, N-[5-chloro-3-(1-{4-[(3S)-4-[(1-{5-[(3RS)-2,6-dioxopiperidin-3-yl]pyridin-2-yl}piperidin-4-yl)methyl]-3-methylpiperazin-1-yl]phenyl}-3-(pyridin-4-yl)-1H-pyrazol-4-yl)-2-fluorophenyl]propane-1-sulfonamide]
10 | – | – | – | – | – | – | – | – | < 10 nM | > 70% | < 10 nM | > 70% | < 10 nM | > 70% | < 10 nM | > 70% | C[C@@H]1CN(c2ccc(-n3cc(-c4cc(Cl)cc(NS(=O)(=O)N5CCCC5)c4F)c(-c4ccncc4)n3)nc2)CCN1CC1CCN(c2ccc(C3CCC(=O)NC3=O)cn2)CC1 (mixture of isomers) [Compound 323, N-[5-chloro-3-(1-{5-[(3R)-4-[(1-{5-[(3RS)-2,6-dioxopiperidin-3-yl]pyridin-2-yl}piperidin-4-yl)methyl]-3-methylpiperazin-1-yl]pyridin-2-yl}-3-(pyridin-4-yl)-1H-pyrazol-4-yl)-2-fluorophenyl]pyrrolidine-1-sulfonamide]
